Assay results reported in patent US11485714B2, “Hydroxyethylamine-based piperazine compounds, and methods of producing and using the same for treating disease” (National Institute of Immunology, priority 2020, dated 2022).
Marks after values point to notes of the source that are not given here.

Columns and labels:
[1] = system: P. falciparum, strain IPC 3445; assay: Growth inhibition of ART resistant field strain; type: cell-based; conditions: Plasmodium falciparum, 72 h, read-out: IC50, ART resistant strain IPC 3445
Procedure: Plasmodium falciparum (P. falciparum), strain IPC 3445 was isolated in 2010 from the blood of a human patient with malaria in Pailin province, western Cambodia. Parasites were grown in the lab and tested with different concentrations of the Calxinin and DHA (100 μM-90 nM) for 72 hr incubations.

[2] = system: sexual erythrocytic stages of PfDd2 cultures; assay: Anti-gametocyte activity, stage I and II gametocytes; type: cell-based, Plasmodium falciparum
Procedure: The effect of Compound I was tested on the development of sexual erythrocytic stages of PfDd2 cultures. Stage I and II gametocytes, were incubated for forty-eight hours with drug concentration considering the IC50 values of compounds at asexual stage assay.

[3] = system: Leishmania donovani amastigotes; assay: Anti-leishmania activity, amastigotes in THP-1 macrophages; type: cell-based; conditions: 96 hours, read-out: IC50, L. donovani amastigotes in THP-1 macrophages
Procedure: To test the anti-leishmania activity, Leishmania donovani strains: L. donovani reporter expressing red fluorescent protein, DsRed2 transgenic L. donovani (LV82)15, obtained from Ohio State University. Columbus (OSUMC). Extracellular (Promastigotes) L. donovani parasites were maintained in M199 media supplemented with 15% heat-inactivated fetal bovine serum (HI-FBS), 20 mM HEPES, 100 U/ml of penicillin and streptomycin at pH 5.5 with 5% CO2. Cultures were constantly maintained in a 25° C. incubator. Anti-leishmanial activity was determined by incubating exponentially growing log-phase promastigotes with THP-1 macrophage for 24 h to infect. Following this, plates were washed to remove the uninfected promastigotes, STD drug and Calxinin were treated 96-well plates for 96 hours. Miltefosine and paromomycin, standard medications, serve as a positive control at equivalent concentrations. Morphological alterations in the amastigotes following treatment with drugs, were examined by fluorescent microscopy. Images were analyzed for percent parasite survival upon drug treatment and enumerated the IC50. The inhibition curve of Compound I was very similar to Amphotericin B (AmpB) and lower than the 2 standard drugs.

[4] = In vitro cytotoxicity, HepG2; type: cell-based; conditions: human, HepG2 cells; read-out: CC50 (50% cell toxicity)
[5] = system: L. donavani infected THP1 cells; assay: Calcium levels in L. donavani infected THP1 cells (Fluo4-AM); type: cell-based, Leishmania donovani; conditions: 10 μM, within few seconds, preliminary
Procedure: A macrophage differentiated cell culture of THP1 cell lines by phorbol 12-myristate 13-acetate (PMA) concentration of 15 ng/ml was established on 15 mm glass bottom petri dishes. The confluent cells were infected with leishmania promastigotes in 1:5 ratio. The infected macrophages were washed after 24 hr.
Incubation was conducted to remove uninfecting promastigotes with same RPMI medium with 6% FCS. The culture was then washed twice in HEPES-buffered saline solution (HBSS) (in mM: 25 HEPES, 121 NaCl, 5 NaHCO3, 4.7 KCl, 1.2 KH2PO4, 1.2 MgSO4, 2.0 CaCl2), 10 glucose, 0.04 probenecid, and 0.25% (w/v) fatty acid-free BSA, pH 7.4). The culture was switched to the same buffer with Fluo4-AM (1×), Hoechst 33258 (1×) and charged for 40 minutes. The cells were then washed in same buffer without dye and mounted on the stage of inverted LSM 510 Zeiss, […], 1.4 NA, oil-immersion objective, zoom 4-6, z-stacks of […] thin optical sections, 4-8× average, 2,000×2,000 pixel window, range indicator used for optimized illumination, and 488, 543, 633 laser lines used for excitation. Compounds Miltefosine, Amphotericin B, calxinin and DMSO were added during time-course experiments. Preliminary results of Amastigotes treated with DMSO (negative control) and treated Compound 1 (10 μM) were generated.

parasitized RBC = assay: Calcium levels in parasitized RBC; type: cell-based; conditions: 10 μM, within a few seconds, preliminary
Procedure: No difference in the activity of the Calcium T Channel was observed under control conditions and with increasing concentrations of the Calxinin molecule, there is no difference in the amplitude of the calcium channel currents, nor in the dependence with the membrane potential of calcium channel activation up to 1 microMolar, that is […] higher than the IC50 to kill the parasite. Human T-type calcium channel currents were measured with the Patch clamp on the “whole cell” configuration in HEK cells constitutively expressing human T type Calcium channel. […] As shown, in FIG. 9 no difference in the amplitude of the calcium channel currents, nor in the dependence with the membrane potential of calcium channel activation even at 11 times the IC50 concentration. Preliminary results of parasitized RBC treated with CQ (I0 μM)+DMSO (negative control) and treated Compound I (10 μM, data not shown) were generated.

[6] = system: Plasmodium berghei NK-65 (chloroquine-resistant); assay: In vivo blood stage mouse model, modified Peters four-day suppressive test
Procedure: Specifically, a murine model of malaria was developed wherein thirty healthy Swiss albino mice were inoculated intraperitoneally with 1×10^7 Plasmodium berghei NK-65 (chloroquine-resistant) infected red blood cells (RBCs) suspended in RPMI 1640 medium (commercially available from Thermo Fisher Scientific Inc.; 200 μL). A first set of the infected mice was treated each day with a single dose of 50 mg/kg of Compound I, and a second set was not treated. The survival of the mice was monitored to day 30 post-infection using a Kaplan-Meier survival analysis, and the statistical difference in animal survival was analyzed by a log rank test. Representative data for the percent parasitemia for untreated mice (control) and mice treated with Compound I are shown in Table 4 and FIG. 2A and FIG. 2B.
Activity of Compound I (Calxinin) was tested using a slightly modified version of Peter's 4-day suppressive test: initial infection of mice with P. berghei parasites, followed one dose 50 mg/kg of drug treatment, followed by monitoring of parasitemia as well as external signs of disease progression for up to 10 days.
10^7 Plasmodium berghei NK-65 (CQ-resistant) were administered by i.p into Swiss albino mice (6 mice/group). Infected mice were either treated with Compound I (Calxinin) or injected with DMSO alone (untreated vehicle control). […] The survival of the mice was followed up to day 30 post-infection using Kaplan-Meier survival analysis (FIG. 6B). Animal survival was analyzed by a log rank test.

For `NC(Cc1ccccc1)C(O)CN1CCN(Cc2ccc(C(F)(F)F)cc2)CC1` (stereo not shown) [Compound I], the IC50 [1] was 0.0926 µM, the “maturation of stage III to V gametocytes (PfDd2)” value ([2]; 48 hours at asexual stage IC50, vs DMSO control) was 41.0 and the gametocyte morphology ([2]; 48 hours, vs DMSO control) was “morphologically distorted gametocytes”. The “decreased proportion of stage III to V gametocytes” value ([2]; 48 hrs at 88 nM) was “up to 59%”, the IC50 [3] was 0.0798 µM and the CC50 [4] was 1350 µM. The “calcium levels of Macrophage+L. donavani” value [5] was “changes in the calcium levels”, the “calcium levels of packed red blood cells (pRBCs)” value (parasitized RBC) was “changes in the calcium levels” and the “activity against mixed blood stages” value ([6]; 50 mg/kg/day (single dose), NK64 strain) was “significant activity”. The “Percent Parasitemia Day 3” value ([6]; Table 4, 50 mg/kg each day) was 0.21 ** (P < 0.001), the “Percent Parasitemia Day 7” value ([6]; Table 4, 50 mg/kg each day) was 2.45 * (P < 0.03) and the “Percent Parasitemia Day 10” value ([6]; Table 4, 50 mg/kg each day) was 12.3 * (P < 0.01). The “% Parasitemia Day 3” value ([6]; Table 5, one dose 50 mg/kg) was 0.21 ** (P < 0.001) %, the “% Parasitemia Day 7” value ([6]; Table 5, one dose 50 mg/kg) was 2.45 * (P < 0.03) % and the “% Parasitemia Day 10” value ([6]; Table 5, one dose 50 mg/kg) was 12.3 * (P < 0.01) %. The “reduction in parasite load” value ([6]; single dose 10 mg/kg, P. berghei NK64, mixed blood stage parasites) was 30%.
